Source: patent US11161830B2, “4-pyridone compound or salt thereof, and pharmaceutical composition and formulation including same” (priority 2017, dated 2021)
pIC50: −log10 of the molar value. Values joined by “and” are separate entries in the source; they are usually repeats but may differ in a detail not shown here. Equal values may be shown once. Read-outs that look alike come from different tables or passages of the source.

Tests used:
[1] = tested on: HBV genotype C; experiment: Test Example 3-2: in vivo efficacy study in PXB mouse (chimeric mouse with human hepatocytes), first and second study; set-up: species or system hepatitis B virus; settings: first study, individual mice
Protocol: An in vivo efficacy study with a PXB mouse (a chimeric mouse with human hepatocytes) was carried out in PhenixBio Co., Ltd. 19-Week-or-more-old male mice having body weights of 10.5 g or more after the elapse of 13 weeks or more from the infection with HBV genotype C were allocated into the respective groups and used. The studies were carried out twice, and a 21-day administration withdrawal period was provided between the first study and the second study.
The first administration day in the first study was taken as day 0, and the compound of Example 6-5 was orally administered at 1 mg/kg, 3 mg/kg, 10 mg/kg, and 30 mg/kg twice a day, or 0.5% methylcellulose (vehicle) was orally administered once a day for 14 days. Before administration on day 0, day 3, Day 7, and day 10, and on day 14, the blood was collected from the orbital venous plexus under anesthesia with isoflurane.
The first administration day in the second study was taken as day 35, and the compounds of Examples 19-2 and 20-2 were each orally administered at 3 mg/kg twice a day, or 0.5% methylcellulose (vehicle) was orally administered once a day for 14 days. Before administration on day 35, day 38, day 42, and day 45, the blood was collected from the orbital venous plexus under anesthesia with isoflurane. On day 49, the blood was collected from the heart under anesthesia with isoflurane.
The serum was separated from the collected blood and purified with a QIAamp (registered trademark) DNA Blood Mini Kit (manufactured by QIAGEN). The amount of HBV-DNA in the obtained solution was absolutely quantified by a real-time PCR method. In addition, the amount of HBsAg in the serum was absolutely quantified by chemiluminescent enzyme immunoassay using Lumipulse (registered trademark) HBsAg-HQ (manufactured by Fujirebio Inc.).

[2] = tested on: HBV; experiment: Test Example 1-1: anti-HBV assay in HepG2.2.15 cells (test solution 200 μL/well); assay type: cell-based, hepatitis B virus; settings: Hepatitis B virus, culture supernatant
In short: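 HepG2.2.15 cells (HBV genome, persistent virus production) pre-cultured 2 days, then treated with compound in 0.25% DMSO medium for 4 days, refreshed for 3 more days at 37 °C. Supernatant HBV-DNA measured by real-time PCR and HBsAg by chemiluminescent immunoassay. IC50 = 50% reduction versus DMSO control, linear regression on log concentration.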

[3] = orally 1 mg/kg twice a day, Day 0 (before administration), 1 mg/kg
[4] = orally 1 mg/kg twice a day, Day 3, 1 mg/kg
[5] = orally 1 mg/kg twice a day, Day 7, 1 mg/kg
[6] = orally 1 mg/kg twice a day, Day 14, 1 mg/kg
[7] = orally 3 mg/kg twice a day, Day 0 (before administration), 3 mg/kg
[8] = orally 3 mg/kg twice a day, Day 3, 3 mg/kg
[9] = orally 3 mg/kg twice a day, Day 7, 3 mg/kg
[10] = orally 3 mg/kg twice a day, Day 10, 3 mg/kg
[11] = orally 3 mg/kg twice a day, Day 14, 3 mg/kg
[12] = orally 10 mg/kg twice a day, Day 0 (before administration), 10 mg/kg
[13] = orally 10 mg/kg twice a day, Day 3, 10 mg/kg
[14] = orally 10 mg/kg twice a day, Day 7, 10 mg/kg
[15] = orally 10 mg/kg twice a day, Day 10, 10 mg/kg
[16] = orally 10 mg/kg twice a day, Day 14, 10 mg/kg
[17] = orally 30 mg/kg twice a day, Day 0 (before administration), 30 mg/kg
[18] = orally 30 mg/kg twice a day, Day 3, 30 mg/kg
[19] = orally 30 mg/kg twice a day, Day 7, 30 mg/kg
[20] = orally 30 mg/kg twice a day, Day 10, 30 mg/kg
[21] = orally 30 mg/kg twice a day, Day 14, 30 mg/kg

COCCN1CCN(c2nc3ccc(-n4cc(C(=O)O)c(=O)cc4-c4ccc(N5CCCC5)c(Cl)c4)cc3s2)CC1 [Example 6-5, 6-(3-chloro-4-(pyrrolidin-1-yl)phenyl)-1-(2-(4-(2-methoxyethyl)piperazine-1-yl)benzo[d]thiazol-6-yl)-4-oxo-1,4-dihydropyridine-3-carboxylic acid]
HBV-DNA in blood [1, 3]: 8.4E+08 copies/mL and 1.1E+09 copies/mL
HBsAg in serum [1, 3]: 1,910 IU/mL and 2,498 IU/mL
HBV-DNA in blood [1, 4]: 1.6E+09 copies/mL and 7.7E+08 copies/mL
HBsAg in serum [1, 4]: 2,288 IU/mL and 2,694 IU/mL
HBV-DNA in blood [1, 5]: 1.4E+09 copies/mL and 1.1E+09 copies/mL
HBsAg in serum [1, 5]: 2,444 IU/mL and 2,663 IU/mL
HBV-DNA in blood ([1]; orally 1 mg/kg twice a day, Day 10): 1.2E+09 copies/mL
HBsAg in serum ([1]; orally 1 mg/kg twice a day, Day 10, 1 mg/kg): 1,947 IU/mL and 2,431 IU/mL
HBV-DNA in blood [1, 6]: 6.8E+08 copies/mL and 6.4E+08 copies/mL
HBsAg in serum [1, 6]: 1,777 IU/mL and 2,344 IU/mL
HBV-DNA in blood [1, 7]: 1.8E+09 copies/mL and 9.8E+08 copies/mL
HBsAg in serum [1, 7]: 2,722 IU/mL and 2,314 IU/mL
HBV-DNA in blood [1, 8]: 5.7E+08 copies/mL and 5.6E+08 copies/mL
HBsAg in serum [1, 8]: 972 IU/mL and 1,059 IU/mL
HBV-DNA in blood [1, 9]: 4.9E+08 copies/mL and 4.0E+08 copies/mL
HBsAg in serum [1, 9]: 859 IU/mL and 876 IU/mL
HBV-DNA in blood [1, 10]: 5.7E+08 copies/mL and 6.2E+08 copies/mL
HBsAg in serum [1, 10]: 959 IU/mL and 1,025 IU/mL
HBV-DNA in blood [1, 11]: 6.1E+08 copies/mL and 5.2E+08 copies/mL
HBsAg in serum [1, 11]: 1,012 IU/mL and 837 IU/mL
HBV-DNA in blood [1, 12]: 1.1E+09 copies/mL and 1.2E+09 copies/mL
HBsAg in serum [1, 12]: 2,500 IU/mL and 2,409 IU/mL
HBV-DNA in blood [1, 13]: 8.0E+08 copies/mL and 4.5E+08 copies/mL
HBsAg in serum [1, 13]: 595 IU/mL and 421 IU/mL
HBV-DNA in blood [1, 14]: 3.3E+08 copies/mL and 4.0E+08 copies/mL
HBsAg in serum [1, 14]: 445 IU/mL and 366 IU/mL
HBV-DNA in blood [1, 15]: 7.3E+08 copies/mL and 3.9E+08 copies/mL
HBsAg in serum [1, 15]: 394 IU/mL and 329 IU/mL
HBV-DNA in blood [1, 16]: 4.9E+08 copies/mL and 3.6E+08 copies/mL
HBsAg in serum [1, 16]: 368 IU/mL and 398 IU/mL
HBV-DNA in blood [1, 17]: 1.6E+09 copies/mL and 1.2E+09 copies/mL
HBsAg in serum [1, 17]: 2,291 IU/mL and 2,328 IU/mL
HBV-DNA in blood [1, 18]: 8.3E+08 copies/mL and 4.4E+08 copies/mL
HBsAg in serum [1, 18]: 673 IU/mL and 592 IU/mL
HBV-DNA in blood [1, 19]: 7.5E+08 copies/mL and 3.7E+08 copies/mL
HBsAg in serum [1, 19]: 458 IU/mL and 370 IU/mL
HBV-DNA in blood [1, 20]: 8.0E+08 copies/mL and 4.9E+08 copies/mL
HBsAg in serum [1, 20]: 359 IU/mL and 392 IU/mL
HBV-DNA in blood [1, 21]: 6.1E+08 copies/mL and 2.6E+08 copies/mL
HBsAg in serum [1, 21]: 408 IU/mL and 268 IU/mL

COC[C@H]1CCCN1c1nc2ccc(-n3cc(C(=O)O)c(=O)cc3-c3ccc(N4CC[C@@H](OC)C4)cc3)cc2s1 [Example 10-2, 1-(2-((R)-2-(methoxymethyl)pyrrolidin-1-yl)benzo[d]thiazol-6-yl)-6-(4-((R)-3-methoxypyrrolidin-1-yl)phenyl)-4-oxo-1,4-dihydropyridine-3-carboxylic acid]
pIC50 ([2]; read-out: IC50 HBV-DNA): 8.28
pIC50 ([2]; read-out: IC50 HBsAg): 8.57
